Assay results published in ChEMBL document CHEMBL1201862, “PubChem BioAssay data set” (2004).
Calls of active or inactive are those of the source.

Assays:
HEK293 = experiment: HEK293T cell cytotoxicity, dose response, cytotoxicity control, ATP luminescence, cherry-pick samples (AID 687005); format: functional, cell-based; settings: Homo sapiens;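 also: cells exposed to compound for 48 hours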
[1] = HEK293 Cytotoxicity Assay Measured in Cell-Based System Using Plate Reader - 7071-01_Inhibitor_Dose_CherryPick_Activity_Set2.; format: functional
[2] = miR-122 activators in hepatoma reporter cells, dose response, cell-based, Huh7 psiCHECK-miR122, Renilla luciferase, cherry-picked (AID 651956); format: functional;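 also: huh7 hepatoma cells stably carrying a psiCHECK-2 miR-122 sensor plasmid; renilla luciferase signal reporting endogenous miR-122 activity after 48 h compound exposure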
[3] = HEK293T cytotoxicity, dose response, cytotoxicity control for miR-122 modulator project, cell-based, inhibitor set, cherry-pick, set 2 (AID 720697); format: functional
[4] = NIH:OVCAR-3 ovarian cancer cell cytotoxicity, dose response, PAX8 inhibitor project, plate reader, dry powder samples (AID 743044); format: functional, cell-based
Paired box protein Pax-8 = Paired box protein Pax-8 (Homo sapiens, UniProt Q06710); experiment: inhibitors of PAX8-driven TPO luciferase reporter, dose response, RMG-I cells, cherry-pick (AID 687027); format: functional, cell-based;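 also: luciferase reporter driven by Pax8 target thyroperoxidase promoter measured by SteadyGlo luminescence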
[5] = IGROV1 ovarian cancer cell cytotoxicity, dose response, PAX8 inhibitor project, plate reader, dry powder samples (AID 743043); format: functional, cell-based; settings: IGROV-1
[6] = A2780 ovarian cancer cell cytotoxicity, dose response, cytotoxicity control, plate reader, dry powder samples (AID 743046); format: functional, cell-based
[7] = cytotoxicity in OVCAR8 ovarian cancer cells, dose response, PAX8 project, cell-based, plate reader, dry powder samples (AID 743197); format: functional; settings: OVCAR-8
[8] = inhibitors of intracellular T. cruzi replication, confirmation, NIH3T3 host cells, beta-gal luminescence (AID 2044); format: functional, cell-based;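 also: intracellular parasites grown in NIH/3T3 mouse fibroblasts as host cells; luminescent beta-galactosidase reporter signal from transgenic T. cruzi replicating inside host cells; inhibitors lower the luminescence signal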
[9] = target: T1, DNA repair and recombination protein RAD54-like (Homo sapiens, UniProt Q92698); experiment: inhibitors of human RAD54 branch migration, confirmation, biochemical, fluorescence, cherry-picked samples, dose series (AID 651657); format: functional
T1 sequence (Q92698 whole entry): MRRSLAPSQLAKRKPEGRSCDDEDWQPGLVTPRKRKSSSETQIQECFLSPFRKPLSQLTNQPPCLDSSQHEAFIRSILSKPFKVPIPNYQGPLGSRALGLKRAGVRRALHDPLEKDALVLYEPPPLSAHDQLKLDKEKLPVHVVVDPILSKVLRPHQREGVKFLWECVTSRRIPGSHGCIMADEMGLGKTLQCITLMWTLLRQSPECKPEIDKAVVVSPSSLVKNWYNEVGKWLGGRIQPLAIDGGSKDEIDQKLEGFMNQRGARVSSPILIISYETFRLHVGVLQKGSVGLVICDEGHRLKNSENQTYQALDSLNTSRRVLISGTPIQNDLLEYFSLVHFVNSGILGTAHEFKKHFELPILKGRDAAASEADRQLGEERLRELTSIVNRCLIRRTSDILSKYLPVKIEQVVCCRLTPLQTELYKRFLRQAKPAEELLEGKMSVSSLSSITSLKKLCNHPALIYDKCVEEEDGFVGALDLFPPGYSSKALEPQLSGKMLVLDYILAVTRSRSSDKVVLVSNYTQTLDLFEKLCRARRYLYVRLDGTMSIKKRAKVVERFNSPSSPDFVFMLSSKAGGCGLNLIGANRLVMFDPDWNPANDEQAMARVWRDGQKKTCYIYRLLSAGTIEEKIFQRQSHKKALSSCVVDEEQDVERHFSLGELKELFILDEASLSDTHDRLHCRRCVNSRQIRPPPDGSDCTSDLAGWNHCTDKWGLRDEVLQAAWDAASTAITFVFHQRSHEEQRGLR

[10] = target: DNA repair protein RAD52 homolog (Homo sapiens, UniProt P43351); format: functional, biochemical
[11] = cytotoxicity toward NIH3T3 fibroblasts, dose response, counter-screen, cell-based, ATP luminescence, mouse fibroblasts (AID 2010); format: functional;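 also: cells exposed to compound for about 90 hours before reading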
[12] = target: T2, Short transient receptor potential channel 4 (Mus musculus, UniProt Q9QUQ5); experiment: mouse TRPC4 channel inhibitors, dose response, cell-based, HEK293 TRPC4/mu-opioid, Fluo-4 calcium (AID 434942); format: functional;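 also: potency of inhibitors blocking the TRPC4 calcium response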
T2 sequence (Q9QUQ5 whole entry): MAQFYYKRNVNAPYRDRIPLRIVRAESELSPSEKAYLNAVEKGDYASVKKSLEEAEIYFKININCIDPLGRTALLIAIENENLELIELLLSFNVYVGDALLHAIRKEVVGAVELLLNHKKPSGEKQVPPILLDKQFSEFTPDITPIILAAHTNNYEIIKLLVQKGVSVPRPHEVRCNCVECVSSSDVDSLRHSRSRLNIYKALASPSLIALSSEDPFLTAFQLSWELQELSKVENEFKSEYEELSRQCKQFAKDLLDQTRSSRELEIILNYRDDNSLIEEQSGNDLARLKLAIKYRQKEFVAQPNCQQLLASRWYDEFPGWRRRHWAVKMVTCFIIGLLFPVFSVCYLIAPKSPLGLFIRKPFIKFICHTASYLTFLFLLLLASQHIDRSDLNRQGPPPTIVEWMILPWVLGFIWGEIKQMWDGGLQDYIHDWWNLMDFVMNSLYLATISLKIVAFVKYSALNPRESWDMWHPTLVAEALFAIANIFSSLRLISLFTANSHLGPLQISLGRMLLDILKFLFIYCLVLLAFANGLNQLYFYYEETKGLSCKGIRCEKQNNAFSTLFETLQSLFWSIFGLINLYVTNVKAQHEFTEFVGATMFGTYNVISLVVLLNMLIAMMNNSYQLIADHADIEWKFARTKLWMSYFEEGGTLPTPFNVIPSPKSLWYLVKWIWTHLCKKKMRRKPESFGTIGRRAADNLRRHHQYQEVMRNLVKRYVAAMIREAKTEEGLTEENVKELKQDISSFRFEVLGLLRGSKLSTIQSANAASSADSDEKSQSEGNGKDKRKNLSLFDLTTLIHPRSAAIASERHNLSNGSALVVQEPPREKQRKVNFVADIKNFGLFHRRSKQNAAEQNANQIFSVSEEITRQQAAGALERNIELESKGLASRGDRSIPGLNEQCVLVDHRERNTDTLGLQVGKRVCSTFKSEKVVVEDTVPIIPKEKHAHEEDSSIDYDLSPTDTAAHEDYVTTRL

[13] = inhibitors of PGC1a acetylation in cells, dose response, cell-based, cherry-picked samples (AID 720514); format: functional;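 also: potency may reflect raised or lowered acetylation signal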
[14] = P. falciparum 3D7-ScDHODH growth inhibitors, dose response, SYBR Green, dry powder samples (AID 1159570); format: functional, cell-based;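 also: parasite growth measured after 72 hours of compound exposure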
[15] = P. falciparum Dd2 growth inhibitors, dose response, SYBR Green, dry powder samples (AID 1159566); format: functional, cell-based;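 also: potency for growth inhibition with lower SYBR green DNA signal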
[16] = P. falciparum ATP4 D1247Y mutant growth inhibitors, dose response, NITD609-resistant line, SYBR Green, dry powder (AID 1159571); format: functional, cell-based;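 also: parasites synchronized at ring stage by sorbitol before testing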
[17] = HepG2 cell cytotoxicity, dose response, cytotoxicity control, cherry-picked samples (AID 1159577); format: functional, cell-based
[18] = HepG2 cell cytotoxicity, dose response, cytotoxicity control, plate reader, dry powder samples (AID 1159569); format: functional, cell-based;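 also: inhibitor potency with signal falling toward the positive control level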
[19] = intracellular Trypanosoma cruzi inhibitors in host cells – cell-based, plate reader, cherry-pick samples, set 3, dose response (AID 651818); format: functional;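 also: compounds incubated with infected cells for about four days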
[20] = P. falciparum Dd2 growth inhibitors, dose response, SYBR Green, cherry-picked samples (AID 1159567); format: functional, cell-based
[21] = ADAM10 inhibitors, peptide cleavage, dose response, biochemical, QFRET (AID 743254);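 also: ADAM10 enzyme with the DM2 quenched FRET peptide as substrate; EDANS fluorescence gain as the protease cuts the substrate; inhibitor potency against ADAM10 proteolytic activity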
[22] = target: Disintegrin and metalloproteinase domain-containing protein 17 (Homo sapiens, UniProt P78536); experiment: ADAM17 protease inhibitors, dose response, counter-screen for ADAM10 exosite inhibitor project, biochemical, quenched FRET substrate (AID 743253)
Albumin = Albumin (Bos taurus, UniProt P02769); experiment: Counterscreen for inhibitors of T-cell receptor (TCR)-CD3 interaction: Fluorescence-based biochemical high throughput dose response assay to identify inhibitors of T-cell receptor (TCR)-CD3 interaction using a TAMRA-labeled BSA probe.; format: functional
[23] = MC4R antagonists, dose response, counter-screen for LGR2 antagonist project, cell-based, plate reader, cherry pick (AID 743444); format: functional;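 also: transfected HEK 293 cells stimulated with alpha-MSH peptide; potency of inhibitors of the alpha-MSH evoked signal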
[24] = HepG2 cell cytotoxicity, dose response, cytotoxicity control, plate reader, cherry-pick, antagonist series (AID 743416); format: functional, cell-based
[25] = A549 cell cytotoxicity, dose response, cytotoxicity control, plate reader, cherry-pick, antagonist series (AID 743412); format: functional, cell-based
[26] = HEK293 cell cytotoxicity, dose response, cytotoxicity control, plate reader, cherry-picked samples (AID 743446); format: functional, cell-based
[27] = LGR2 antagonists, dose response, cell-based, HEK293, CRE-luciferase reporter, cherry pick, set 2 (AID 743343); format: functional;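 also: transfected cells were stimulated with diluted bursicon conditioned medium after compound addition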
[28] = cytotoxicity in HeLa cells, dose response, cytotoxicity control, cell-based, 24 h, dry powder, set 2 (AID 651774); format: functional
[29] = growth suppression of PTEN-null colon cells, dose response, cell-based, HCT116 PTEN knockout (AID 1047); format: functional;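 also: HCT116 colon tumor cells with PTEN knocked out; cells exposed to compound for 60 hours before readout; potency for loss of cell viability measured by luminescence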
[30] = Luminescence Cell-Based Dose Retest to Confirm Inhibitors of Cancer Stem Cells. [Related pubchem assays (depositor defined):AID2717, AID2721]; format: functional; settings: Homo sapiens
Cytochrome P450 2C9 = Cytochrome P450 2C9 (Homo sapiens, UniProt P11712)
[31] = growth suppression of beta-catenin-knockout colon cells, dose response, cell-based, HCT116, human colon tumor (AID 1045); format: functional;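 also: HCT116 colon tumor cells with beta catenin knocked out; cells exposed to compound for 60 hours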
[32] = HEK293 cell cytotoxicity, dose response, cytotoxicity control, cherry-picks, set 5 (AID 1053117); format: functional, cell-based

Sequence of Albumin (P02769 whole entry): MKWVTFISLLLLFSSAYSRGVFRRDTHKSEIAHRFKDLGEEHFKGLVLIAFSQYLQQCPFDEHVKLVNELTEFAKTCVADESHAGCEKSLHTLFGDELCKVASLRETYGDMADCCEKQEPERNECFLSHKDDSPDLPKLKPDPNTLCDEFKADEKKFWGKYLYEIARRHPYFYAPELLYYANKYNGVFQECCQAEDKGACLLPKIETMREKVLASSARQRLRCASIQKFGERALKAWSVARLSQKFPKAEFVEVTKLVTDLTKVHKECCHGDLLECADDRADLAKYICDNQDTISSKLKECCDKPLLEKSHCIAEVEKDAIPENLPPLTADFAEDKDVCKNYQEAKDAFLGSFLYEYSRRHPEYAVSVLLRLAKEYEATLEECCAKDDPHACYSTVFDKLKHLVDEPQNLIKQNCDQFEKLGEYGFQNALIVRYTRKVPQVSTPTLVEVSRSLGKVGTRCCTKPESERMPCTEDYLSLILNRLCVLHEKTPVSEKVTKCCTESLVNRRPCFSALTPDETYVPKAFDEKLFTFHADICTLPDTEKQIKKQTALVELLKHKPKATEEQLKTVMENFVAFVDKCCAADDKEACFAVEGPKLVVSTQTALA
Sequence of Disintegrin and metalloproteinase domain-containing protein 17 (P78536 whole entry, the tested form may be a part): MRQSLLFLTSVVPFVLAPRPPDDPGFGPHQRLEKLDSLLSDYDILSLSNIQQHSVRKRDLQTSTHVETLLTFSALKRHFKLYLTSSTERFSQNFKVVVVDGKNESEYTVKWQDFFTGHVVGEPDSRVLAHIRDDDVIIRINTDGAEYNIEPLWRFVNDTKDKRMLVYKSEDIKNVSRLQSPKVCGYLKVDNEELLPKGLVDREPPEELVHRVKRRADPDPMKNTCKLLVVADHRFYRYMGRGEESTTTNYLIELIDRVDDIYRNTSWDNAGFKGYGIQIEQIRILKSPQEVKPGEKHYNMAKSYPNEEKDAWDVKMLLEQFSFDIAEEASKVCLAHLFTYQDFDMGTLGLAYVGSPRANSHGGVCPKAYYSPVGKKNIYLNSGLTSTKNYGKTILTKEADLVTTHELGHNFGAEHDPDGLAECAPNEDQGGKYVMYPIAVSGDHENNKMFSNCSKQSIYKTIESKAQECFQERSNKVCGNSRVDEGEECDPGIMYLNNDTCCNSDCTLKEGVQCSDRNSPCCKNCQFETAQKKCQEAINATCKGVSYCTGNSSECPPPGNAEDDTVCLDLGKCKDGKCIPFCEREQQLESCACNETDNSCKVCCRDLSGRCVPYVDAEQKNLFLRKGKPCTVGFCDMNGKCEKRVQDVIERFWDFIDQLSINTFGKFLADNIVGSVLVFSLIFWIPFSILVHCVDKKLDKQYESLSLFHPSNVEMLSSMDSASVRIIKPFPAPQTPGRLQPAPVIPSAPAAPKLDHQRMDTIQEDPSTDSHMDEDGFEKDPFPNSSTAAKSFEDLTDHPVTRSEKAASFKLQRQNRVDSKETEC
Sequence of DNA repair protein RAD52 homolog (P43351 whole entry): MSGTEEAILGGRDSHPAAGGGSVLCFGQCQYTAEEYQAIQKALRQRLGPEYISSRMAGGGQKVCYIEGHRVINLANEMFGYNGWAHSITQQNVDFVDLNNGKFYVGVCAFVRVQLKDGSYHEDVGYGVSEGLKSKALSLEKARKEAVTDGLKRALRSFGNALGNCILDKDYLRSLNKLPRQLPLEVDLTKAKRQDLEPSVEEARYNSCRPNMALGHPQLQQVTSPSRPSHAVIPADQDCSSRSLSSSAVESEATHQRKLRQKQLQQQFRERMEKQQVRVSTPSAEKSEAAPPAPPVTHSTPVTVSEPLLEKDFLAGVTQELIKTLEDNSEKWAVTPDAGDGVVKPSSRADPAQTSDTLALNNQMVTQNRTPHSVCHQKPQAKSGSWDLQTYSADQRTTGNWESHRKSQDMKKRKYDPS
Sequence of Paired box protein Pax-8 (Q06710 whole entry): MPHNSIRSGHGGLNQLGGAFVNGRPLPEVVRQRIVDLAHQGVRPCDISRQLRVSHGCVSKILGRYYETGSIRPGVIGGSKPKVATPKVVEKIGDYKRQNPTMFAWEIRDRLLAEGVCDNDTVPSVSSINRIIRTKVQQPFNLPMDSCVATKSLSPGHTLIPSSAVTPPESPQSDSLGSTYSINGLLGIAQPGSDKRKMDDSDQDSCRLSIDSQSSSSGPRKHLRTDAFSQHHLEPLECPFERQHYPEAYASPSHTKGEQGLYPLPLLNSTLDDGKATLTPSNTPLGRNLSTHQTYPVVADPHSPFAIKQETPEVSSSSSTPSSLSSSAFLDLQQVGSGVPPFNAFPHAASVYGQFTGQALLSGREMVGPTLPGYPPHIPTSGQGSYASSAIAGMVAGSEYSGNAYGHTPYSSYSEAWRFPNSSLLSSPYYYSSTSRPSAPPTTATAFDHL
Sequence of Cytochrome P450 2C9 (P11712 whole entry): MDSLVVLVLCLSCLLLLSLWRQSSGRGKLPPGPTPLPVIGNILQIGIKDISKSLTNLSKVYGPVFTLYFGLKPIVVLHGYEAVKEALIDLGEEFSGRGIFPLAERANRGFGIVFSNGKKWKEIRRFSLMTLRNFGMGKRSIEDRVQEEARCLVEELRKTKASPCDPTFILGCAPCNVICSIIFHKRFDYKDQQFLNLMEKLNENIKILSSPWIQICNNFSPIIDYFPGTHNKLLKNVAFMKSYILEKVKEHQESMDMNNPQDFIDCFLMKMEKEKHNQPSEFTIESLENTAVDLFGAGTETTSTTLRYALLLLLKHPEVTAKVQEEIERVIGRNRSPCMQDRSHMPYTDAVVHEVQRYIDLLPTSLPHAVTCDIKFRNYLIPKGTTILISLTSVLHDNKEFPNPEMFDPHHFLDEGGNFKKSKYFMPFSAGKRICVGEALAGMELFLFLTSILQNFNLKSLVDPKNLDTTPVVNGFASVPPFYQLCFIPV

With `O=C(C[C@@H]1CC[C@@H]2[C@H](COC[C@H](O)CN2S(=O)(=O)c2ccc(Oc3ccccc3)cc2)O1)NC1CCC1` the AC50 (HEK293) was > 52 µM (inactive) and the AC50 [1] was > 52 µM (inactive).

In the case of `CCC(=O)N1[C@H](CO)[C@H](c2ccccc2)[C@H]1CN(C(C)C)S(C)(=O)=O`, the AC50 [2] is reported as 35.4 µM (active) and the AC50 [3] is reported as 525 nM (active).

In the case of `C[C@@H]1CCCCO[C@H](CN(C)C(=O)C2CCCCC2)[C@@H](C)CN([C@@H](C)CO)C(=O)c2cc(NC(=O)Nc3ccc(F)cc3)ccc2O1`, the AC50 [4] is reported as 38.4 µM (active), the AC50 (Paired box protein Pax-8) is reported as 4.07 µM (active) and the AC50 [5] is reported as 63.4 µM (active). The AC50 [6] was 48.1 µM (active) and the AC50 [7] was 69.9 µM (active).

In the case of `COc1ccc(Nc2nc(NCC3CCCO3)c3ccccc3n2)c(OC)c1` (stereo not drawn), the EC50 [8] is reported as 465 nM (active), the AC50 [9] is reported as 57.9 µM (active) and the AC50 [10] is reported as 13.4 µM (active). The EC50 [11] was > 30 µM (not active) and the EC50 [12] was 376 nM (active).

For `CCN(CC(=O)Nc1ccccc1C(F)(F)F)C(=O)CCSc1ccc(F)cc1`, the AC50 [13] was 27 µM (active).

With `C[C@H](CO)N1C[C@H](C)[C@H](CN(C)Cc2ccc(C(F)(F)F)cc2)Oc2c(NC(=O)c3nc4ccccc4s3)cccc2C1=O` the AC50 [14] was 3.74 µM (active), the AC50 [15] was 823 nM (active) and the AC50 [16] was 1.69 µM (active). The AC50 [17] was > 39 µM (inactive), the AC50 [18] was 46.2 µM (active) and the AC50 [19] was 940 nM (active). The AC50 [20] was 2.71 µM (active).

In the case of `FC(F)(F)c1cccc(NC(S)=NCC2COc3ccccc3O2)c1` (stereo not drawn), the IC50 [21] is reported as 16.8 µM (inactive) and the IC50 [22] is reported as > 69.5 µM (inactive).

With `Cc1ccc(N2C(=O)/C(=C\NNC(=O)C3COc4ccccc4O3)c3ccccc3C2=O)cc1` (stereo not drawn) the IC50 (Albumin) was > 94.1 µM (inactive).

With `COc1ccc2nc(NC(=O)c3ccco3)sc2c1` the AC50 [23] was 9.96 µM (active), the AC50 [24] was > 52 µM (inactive) and the AC50 [25] was > 52 µM (inactive). The AC50 [26] was > 52 µM (inactive) and the AC50 [27] was 6.48 µM (active).

For `CCCNC(=O)N(C)C[C@H]1Oc2cc(C#CCC(C)C)ccc2S(=O)(=O)N([C@@H](C)CO)C[C@H]1C`, the AC50 [13] was 26.5 µM (active).

For `CCn1nnnc1NCc1ccc(N2CCCC2)cc1`, the AC50 [28] was > 70 µM (inactive).

In the case of `CCn1nnnc1NCc1cccn1C`, the AC50 [28] is reported as 31.1 µM (active).

For `C[C@H]1CN([C@@H](C)CO)C(=O)c2cc(NS(=O)(=O)c3ccc(F)cc3)ccc2O[C@@H]1CN(C)S(=O)(=O)c1ccccc1`, the AC50 (HEK293) was > 52 µM (inactive) and the AC50 [1] was > 52 µM (inactive).

For `C=C(C)COc1ccc(-c2[nH]nc(C)c2-c2ccc(OC)cc2)c(O)c1`, the IC50 [21] was 9.09 µM (active), the EC50 [29] was 17.7 µM (active) and the AC50 [30] was 3.41 µM (active). For the same compound, the IC50 [22] was > 69.6 µM (inactive), the AC50 (Cytochrome P450 2C9) was 25.1 µM (inconclusive) and the EC50 [31] was 18 µM (active).

With `Cc1cc(C)c(-c2cc(NC(=O)COC(=O)c3ccc(NC(=O)CC#N)cc3)n(-c3ccccc3)n2)cc1C` the IC50 (Albumin) was > 94.1 µM (inactive).

For `O=S(=O)(c1ccccc1F)N1CC[C@H]2[C@H](CO)Nc3ccc(-c4cccc(F)c4)cc3[C@H]21`, the AC50 [32] was 46.2 µM (active).

In the case of `N#C[C@@H]1[C@@H](c2ccc(C3=CCCCC3)cc2)[C@H](CO)N1C(=O)NC1CCCC1`, the AC50 [14] is reported as 3.06 µM (active), the AC50 [15] is reported as 1460 nM (active) and the AC50 [16] is reported as 2.61 µM (active). The AC50 [18] was 35.6 µM (active) and the AC50 [20] was 2.28 µM (active).
